The subject of series [1] is SJ-G2 Glioblastoma. The experiment in a line: MTT cytotoxicity SJ-G2. The following applies: read-out: GI50 Concentration That Inhibits Cell Growth by 50%, 72 h. The class given is cell-based. How it is done:
(§1) Cytotoxicity assay studies were performed at Calvary Mater Newcastle Hospital, Waratah, NSW, Australia. In vitro studies were performed according to described methods. Complexes were prepared in DMSO as stock treatment (30 mM) solutions and stored at −20 °C. All cell lines were cultured in a humidified atmosphere with 5% CO2 at 37 °C and maintained in Dulbecco’s modified eagle’s medium (DMEM; Trace Biosciences, Melbourne, Australia) supplemented with 10% foetal bovine serum, sodium bicarbonate (10 mM), penicillin (100 IU mL^−1), streptomycin (100 μg mL^−1), and L-glutamine (4 mM). The non-cancer MCF10A cell line was cultured in DMEM.F12 (1:1) cell culture media (Composition in SI). Cytotoxicity was determined by plating cells in duplicate in 100 μL medium at a density of 2500–4000 cells per well in 96-well plates. After 24 h, when cells were in logarithmic growth, media (100 μL) with or without the test agent were added to each well (day 0). After 72 h of exposure, growth inhibitory effects were evaluated by MTT (3-[4,5-dimethylthiazol-2-yl]-2,5-diphenyltetrazolium bromide) assay, and absorbance was read at 540 nm. […] These calculations were based on the difference between the optical density values on day 0 and those at the end of drug exposure.

Series [2] concerns A2780 Ovarian. The experiment in a line: MTT cytotoxicity A2780. The class given is cell-based. The following applies: read-out: GI50 Concentration That Inhibits Cell Growth by 50%, 72 h. The method, then:
as §1

The test system of series [3] is BE2-C Neuroblastoma. Kind of series: MTT cytotoxicity BE2-C. It is filed as cell-based. Conditions: read-out: GI50 Concentration That Inhibits Cell Growth by 50%, 72 h. The method, then: as §1
The test system of series [4] is calf thymus DNA (ctDNA). Kind of series: Direct ctDNA binding by inherent fluorescence (Benesi–Hildebrand). Conditions: inherent fluorescence method, 10 µM CMC, buffer pH 7.0. The method, then: ctDNA experiments utilising the inherent fluorescence of the complexes were completed in addition to the FID experiments. […] The values of Ka and n for the compounds are listed in Table 4, where R^2 is the linear correlation coefficient for Ka.
The direct fluorescent measurements of DNA binding constants were also obtained with the same fluorimeter using 10 mm path length quartz cells. A 0.065 M stock solution of ctDNA was titrated into a 10 µM solution of CMCs 1–3 in a 40 mM K2HPO4/KH2PO, 10 mM KCl buffer at pH 7.0. The fluorescence was measured from 550 to 750 nm excited at 320 nm inverting 4 times and waiting 3 min between the addition of ctDNA and scan time to allow adequate time for the CMCs to interact with the DNA.

Series [5] relates to MCF10A Breast (normal). The experiment in a line: MTT cytotoxicity MCF10A (non-cancer). It is filed as cell-based. Conditions: read-out: GI50 Concentration That Inhibits Cell Growth by 50%, 72 h. The method, then:
as §1

Series [6] is described as follows: Lipophilicity by RP-HPLC (log Kw). It is filed as physicochemical. Conditions: isocratic 70 to 90% solvent B. How it is done: Lipophilicity was calculated using a RP-HPLC method to determine log Kw, whereby a stock solution was injected at different isocratic ratios ranging from 70 to 90% solvent B (organic) at a flow rate of 1 mL min^−1. These experiments were undertaken on an Agilent Technologies 1260 Infinity machine equipped with a Phenomenex Onyx™ Monolithic C18 reverse phase column (100 × 4.6 mm, 130 Å). The mobile phase comprised 0.06% TFA in water (solvent A) and 0.06% TFA in ACN:H2O (90:10, solvent B). The dead zero volume time was determined using potassium iodide as an external dead volume marker, further details are provided in the Supplementary Materials.

For series [7], the system named is calf thymus DNA (ctDNA). The experiment in a line: Fluorescent intercalator displacement (FID) assay, EtBr-saturated ctDNA. It is filed as binding. The following applies: buffer pH 7.0. Details: Kq (bimolecular quenching constant) / KSV (Stern–Volmer quenching constant): unit not given here. How it is done:
To investigate the potential mechanisms of action of complexes 1–3, fluorescent intercalator displacement (FID) experiments and DNA binding experiments utilizing the innate fluorescence were undertaken. For FID experiments, the concentration of a fluorescent intercalator, in this case ethidium bromide (EtBr), that is displaced by the complex under investigation is determined. In a solution of calf-thymus DNA (ctDNA) where is saturated with EtBr, the change in fluorescence is monitored as the complex is titrated into this solution. Once the decrease in fluorescence has stopped, the concentration of the complex allows us to calculate the stoichiometric point of binding, the change in fluorescence at the point of binding (ΔFsat), the binding coefficient (Ka), bimolecular quenching constant (Kq), Stern–Volmer quenching constant (Ksv), the binding constant for fluorescence (KF), and the molar equivalents of CMC (n) at the point of intersection is the experimental stoichiometry of binding. (1) [ctDNA]Tn−∆Fx/∆Fsat=[CMC] (2) ∆Fx/∆Fsat1/n=fraction of ctDNA−CMC complex (3) 1−∆Fx/∆Fsat1/n=fraction free CMC
The fluorescence at 601 nm for each titration was plotted, and the KF and n could be calculated from the intercept and slope, respectively. (4) F0/F=1+Kqτ0CMC=1+KSV[CMC] where F0 is the fluorescence of the binding site in the absence of quencher (CMC), F is the fluorescence of the site containing the CMC, and t0 is the lifetime of the chromophore in the absence of the quencher (Ɛ476 = 5680 for ethidium-bound DNA).
A plot of F0/F against [CMC] using experimental values allows for the determination of Kq and KSV from the slope. (5) log10F0−F/F=nlog10CMC+log10KF where n is the number of ethidium ligands that are displaced per CMC. […] A plot of log10[(F0 − F)/F)] against log10[CMC] is used to determine KF and n from the intercept and slope, respectively. Experiments were performed in triplicate for each CMC.
Fluorescent intercalator displacement (FID) assays were obtained using the same instrument and by using 10 mm quartz cells. Stock solutions CMCs 1–3 (30 µM) were titrated into a solution of […] ethidium bromide, 150 µM ctDNA in a 40 mM K2HPO4/KH2PO, and 10 mM KCl buffer at pH 7.0. The fluorescence was measured from 550 to 750 nm excited at 480 nm and inverting 4 times and waiting 3 min between the addition of ctDNA and scan time to allow adequate time for the CMCs to interact with the DNA.

For series [8], the system named is Du145 Prostate. The experiment in a line: MTT cytotoxicity Du145. The class given is cell-based. Conditions: read-out: GI50 Concentration That Inhibits Cell Growth by 50%, 72 h. The method, then: as §1
Series [9] relates to MIA Pancreas. The experiment in a line: MTT cytotoxicity MIA. The class given is cell-based. The following applies: read-out: GI50 Concentration That Inhibits Cell Growth by 50%, 72 h. The method, then: as §1
Series [10] relates to ADDP Cis Res Ovarian. Kind of series: MTT cytotoxicity ADDP. It is filed as cell-based. Conditions: read-out: GI50 Concentration That Inhibits Cell Growth by 50%, 72 h. How it is done: as §1
For series [11], the system named is H460 Lung. Kind of series: MTT cytotoxicity H460. Conditions: read-out: GI50 Concentration That Inhibits Cell Growth by 50%, 72 h. The class given is cell-based. The method, then: as §1
Series [12] has as its system HT29 Colon. The experiment in a line: MTT cytotoxicity HT29. The following applies: read-out: GI50 Concentration That Inhibits Cell Growth by 50%, 72 h. The class given is cell-based. The method, then: as §1
In series [13] the test system is MCF-7 Breast. Kind of series: MTT cytotoxicity MCF-7. It is filed as cell-based. Conditions: for GI50: read-out: GI50 Concentration That Inhibits Cell Growth by 50%, MCF-7 Breast, 72 h, MTT. How it is done:
as §1

Series [14] deals with A431 Skin. The experiment in a line: MTT cytotoxicity A431. It is filed as cell-based. The following applies: read-out: GI50 Concentration That Inhibits Cell Growth by 50%, 72 h. How it is done: as §1
Series [15] deals with U87 Glioblastoma. The experiment in a line: MTT cytotoxicity U87. The following applies: read-out: GI50 Concentration That Inhibits Cell Growth by 50%, 72 h. The class given is cell-based. The method, then:
as §1

Turning to [Pt(DiBequ)(RRDACH)]+ [Complex 3b], the GI50 was 10.1 ± 2.6 µM in series [1]; 4.5 ± 0.3 µM in [2]; 33 ± 1.2 µM in series [3]; 8.5 ± 1.4 µM in [5]; 16 ± 1.5 µM in series [8]; 12.5 ± 2 µM in series [9]. Moreover, the GI50 is 6.9 ± 0.4 µM in series [10]; 8.2 ± 2.9 µM in series [11]; 16 ± 0.3 µM in [12]; 4.2 ± 0.3 µM in series [13]; 3.9 ± 0.4 µM in [14]; 4.1 ± 0.3 µM in series [15]. Moreover, the “Ka (binding constant)” value in series [4] was 3.68 × 10^4. Further, the “Lipophilicity × 10^−2 (log Kw)” value in series [6] is recorded as 0.4 ± 0.029 × 10^−2. In addition, in series [7], the “KSV (Stern–Volmer quenching constant)” value was found to be 1.727. In addition, the “Ka (binding coefficient)” value in [7] was 3.98 × 10^4. In [7], the “Kf (binding constant for fluorescence)” value came to 4.22. Also, in [7], the “Kq (bimolecular quenching constant)” value was 0.297. For the same substance, the “Point of Experimental Stoichiometry of Binding” value in [7] was found to be 2.62. Further, the “n (number of ethidium ligands displaced per CMC)” value in [7] came out at 0.757. Also, the “ΔFsat (change in fluorescence at the point of binding)” value in series [7] is 82.38.
[Pt(DiBequ)(SSDACH)]+ [Complex 3a]: the GI50 in [1] was found to be 17 ± 0.6 µM; in [2], 12 ± 0.9 µM; in series [3] it was 9 ± 1.3 µM; in series [5], 16 ± 0.6 µM; in [8] it was 23 ± 2.1 µM; in series [9], 15 ± 0.7 µM. The GI50 was 15 µM in [10]; 16 ± 0.9 µM in series [11]; 16 µM in [12]; 15 ± 0.5 µM in series [13]; 14 ± 0.6 µM in series [14]; 16 ± 0.6 µM in [15]. Besides, the “Ka (binding constant)” value in series [4] is 1.11 × 10^4. Further, in series [6], the “Lipophilicity × 10^−2 (log Kw)” value was 0.77 ± 0.032 × 10^−2. Also, the “KSV (Stern–Volmer quenching constant)” value in series [7] is 1.342. In [7], the “Ka (binding coefficient)” value was 1.07 × 10^4. In [7], the “Kf (binding constant for fluorescence)” value came to 3.18. The “Kq (bimolecular quenching constant)” value in [7] is 0.237. Also, in series [7], the “Point of Experimental Stoichiometry of Binding” value worked out at 2.38. The “n (number of ethidium ligands displaced per CMC)” value in series [7] is recorded as 0.579. Besides, in series [7], the “ΔFsat (change in fluorescence at the point of binding)” value was determined as 91.83. Also, the “SI = GI50 for normal cells/GI50 for cancer cells (MCF10A/MCF-7)” value in [13] (MCF10A/MCF-7) is on record as 1.07.
